{"source": "patent US9845310B2", "about": "(priority 2015, dated 2017)", "target": "APJ (Homo sapiens (Human), UniProt P35414)", "sequence (P35414 whole entry)": "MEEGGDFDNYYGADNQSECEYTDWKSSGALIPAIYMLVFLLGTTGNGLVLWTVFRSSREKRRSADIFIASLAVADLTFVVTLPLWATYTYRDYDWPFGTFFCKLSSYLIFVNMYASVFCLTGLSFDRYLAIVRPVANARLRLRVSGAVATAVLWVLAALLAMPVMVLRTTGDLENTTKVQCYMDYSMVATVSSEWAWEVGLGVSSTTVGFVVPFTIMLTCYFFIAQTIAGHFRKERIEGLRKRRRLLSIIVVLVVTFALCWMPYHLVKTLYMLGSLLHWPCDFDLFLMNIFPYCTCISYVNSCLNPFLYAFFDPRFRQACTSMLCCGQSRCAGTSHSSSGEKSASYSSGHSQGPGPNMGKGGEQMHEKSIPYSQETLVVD", "experiment": "[35S]GTPγS binding assay on membranes from CHO cells stably expressing human APJ receptor", "format": "biochemical", "key": {"[1]": {"conditions": "read-out: Activity hAPJ SPA EC50 IP"}}, "note": "Like-named read-outs stand apart in the source and are kept apart here.", "data": [{"smiles": "COc1cccc(-c2nnc(NS(=O)(=O)[C@@H]3CCCO[C@@H]3c3ncc(C)cn3)n2-c2c(OC)cccc2OC)n1", "note": "(single isomer, unassigned) [Example 656.0]", "values": [{"measurement": "EC50", "setting": "[1]", "result": 0.013, "unit": "µM"}]}, {"smiles": "COc1cccc(OC)c1-n1c(NS(=O)(=O)[C@@H](C)[C@H](OC)c2ncc(-c3ccccc3)cn2)nnc1-c1cncc(C)c1", "note": "[Example 428.0, (1R,2S)-N-(4-(2,6-dimethoxyphenyl)-5-(5-methylpyridin-3-yl)-4H-1,2,4-triazol-3-yl)-1-methoxy-1-(5-phenylpyrimidin-2-yl)propane-2-sulfonamide]", "values": [{"measurement": "EC50", "setting": "Activity hAPJ SPA EC50 IP (μM)", "result": 0.0025, "unit": "µM"}]}, {"smiles": "COc1cccc(OC)c1-n1c(NS(=O)(=O)[C@@H](C)[C@H](C)c2ncc(F)c([C@@H]3COCCO3)n2)nnc1-c1cccc(OCC(O)(C(F)(F)F)C(F)(F)F)n1", "note": "(single isomer, unassigned) [Example 640.0]", "values": [{"measurement": "EC50", "setting": "[1]", "result": 0.33, "unit": "µM"}]}, {"smiles": "COc1cccc(-c2nnc(NS(=O)(=O)[C@@H](C)[C@H](OC)c3ccc(C#N)cc3C#N)n2-c2c(OC)cccc2OC)n1", "note": "(mixture of isomers) [Example 473.0]", "values": [{"measurement": "EC50", "setting": "[1]", "result": 0.00023, "unit": "µM"}]}, {"smiles": "COc1cccc(-c2nnc(NS(=O)(=O)[C@@H](C)[C@H](OC(C)C)c3ncc(C)cn3)n2-c2c(OC)cccc2OC)n1", "note": "(single isomer, unassigned) [Example 96.0]", "values": [{"measurement": "EC50", "setting": "Activity hAPJ SPA EC50 IP (μM)", "result": 0.00026, "unit": "µM"}]}, {"smiles": "COc1cccc(-c2nnc(NS(=O)(=O)C[C@H](OC)c3ccc(C#N)cc3S(C)(=O)=O)n2-c2c(OC)cccc2OC)n1", "note": "(mixture of isomers) [Example 484.0, (2R)-2-(4-cyano-2-(methylsulfonyl)phenyl)-N-(4-(2,6-dimethoxyphenyl)-5-(6-methoxy-2-pyridinyl)-4H-1,2,4-triazol-3-yl)-2-methoxyethanesulfonamide and (2S)-2-(4-cyano-2-(methylsulfonyl)phenyl)-N-(4-(2,6-dimethoxyphenyl)-5-(6-methoxy-2-pyridinyl)-4H-1,2,4-triazol-3-yl)-2-methoxyethanesulfonamide]", "values": [{"measurement": "EC50", "setting": "Activity hAPJ SPA EC50 IP (μM)", "result": 0.00026, "unit": "µM"}]}, {"smiles": "COc1cccc(OC)c1-n1c(NS(=O)(=O)[C@@H](C)Cc2ncc(F)cn2)nnc1-c1cnccc1C", "note": "(mixture of isomers) [Example 216.0, (2S)-N-(4-(2,6-dimethoxyphenyl)-5-(4-methyl-3-pyridinyl)-4H-1,2,4-triazol-3-yl)-1-(5-fluoro-2-pyrimidinyl)-2-propanesulfonamide and (2R)-N-(4-(2,6-dimethoxyphenyl)-5-(4-methyl-3-pyridinyl)-4H-1,2,4-triazol-3-yl)-1-(5-fluoro-2-pyrimidinyl)-2-propanesulfonamide]", "values": [{"measurement": "EC50", "setting": "[1]", "result": 0.57, "unit": "µM"}]}, {"smiles": "COc1cccc(OC)c1-n1c(NS(=O)(=O)[C@@H]2CCCO[C@@H]2c2ncc(C)cn2)nnc1-c1cncc(C)c1", "note": "(single isomer, unassigned) [Example 643.0]", "values": [{"measurement": "EC50", "setting": "[1]", "result": 0.15, "unit": "µM"}]}, {"smiles": "COc1cccc(OC)c1-n1c(NS(=O)(=O)[C@@H](C)[C@H](OC)c2ncc(C)o2)nnc1-c1cncc(C)c1", "note": "(single isomer, unassigned) [Example 633.0, (1S,2R)-N-(4-(2,6-dimethoxyphenyl)-5-(5-methylpyridin-3-yl)-4H-1,2,4-triazol-3-yl)-1-methoxy-1-(5-methyloxazol-2-yl)propane-2-sulfonamide or (1R,2S)-N-(4-(2,6-dimethoxyphenyl)-5-(5-methylpyridin-3-yl)-4H-1,2,4-triazol-3-yl)-1-methoxy-1-(5-methyloxazol-2-yl)propane-2-sulfonamide]", "values": [{"measurement": "EC50", "setting": "[1]", "result": 0.0069, "unit": "µM"}]}, {"smiles": "COc1cccc(-c2nnc(NS(=O)(=O)[C@H](C)[C@H](OC(C)C)c3ncc(C)cn3)n2-c2c(OC)cccc2OC)n1", "note": "(single isomer, unassigned) [Example 98.0]", "values": [{"measurement": "EC50", "setting": "Activity hAPJ SPA EC50 IP (μM)", "result": 0.0099, "unit": "µM"}]}, {"smiles": "COc1ccc(Cl)c(OC)c1-n1c(-c2cncc(C)c2)nnc1S(=O)(=O)NCCc1ccc(Cl)cc1", "note": "[Example 373.0, 4-(3-chloro-2,6-dimethoxyphenyl)-N-(2-(4-chlorophenyl)ethyl)-5-(5-methyl-3-pyridinyl)-4H-1,2,4-triazole-3-sulfonamide]", "values": [{"measurement": "EC50", "setting": "Activity hAPJ SPA EC50 IP (μM)", "result": 0.31, "unit": "µM"}]}, {"smiles": "CO[C@H](c1ncc(C)cn1)[C@H](C)S(=O)(=O)Nc1nnc(-c2cncc(C)c2)n1-c1c(C)cccc1C", "note": "[Example 673.0, (1R,2S)-N-(4-(2,6-dimethylphenyl)-5-(5-methyl-3-pyridinyl)-4H-1,2,4-triazol-3-yl)-1-methoxy-1-(5-methyl-2-pyrimidinyl)-2-propanesulfonamide 2,2,2-trifluoroacetate]", "values": [{"measurement": "EC50", "setting": "Activity hAPJ SPA EC50 IP (μM)", "result": 0.022, "unit": "µM"}]}, {"smiles": "COc1cccc(OC)c1-n1c(NS(=O)(=O)[C@H](C)[C@@H](OC(C)C)c2ncc(C)cn2)nnc1-c1cccnc1", "note": "(stereo in doubt) [Example 626.0, (1S,2R)-N-(4-(2,6-dimethoxyphenyl)-5-(3-pyridinyl)-4H-1,2,4-triazol-3-yl)-1-(1-methylethoxy)-1-(5-methyl-2-pyrimidinyl)-2-propanesulfonamide, (1R,2S)-N-(4-(2,6-dimethoxyphenyl)-5-(3-pyridinyl)-4H-1,2,4-triazol-3-yl)-1-(1-methylethoxy)-1-(5-methyl-2-pyrimidinyl)-2-propanesulfonamide]", "values": [{"measurement": "EC50", "setting": "[1]", "result": 0.0018, "unit": "µM"}]}, {"smiles": "COc1cccc(-c2nnc(NS(=O)(=O)[C@@H]3CCCO[C@@H]3c3ncc(C)cn3)n2-c2c(OC)cccc2OC)n1", "note": "(single isomer, unassigned) [Example 655.0]", "values": [{"measurement": "EC50", "setting": "[1]", "result": 0.13, "unit": "µM"}]}, {"smiles": "COc1cccc(-c2nnc(NS(=O)(=O)[C@@H]3CCCO[C@@H]3c3ncc(C)cn3)n2-c2c(OC)cccc2OC)n1", "note": "(single isomer, unassigned) [Example 654.0]", "values": [{"measurement": "EC50", "setting": "[1]", "result": 0.15, "unit": "µM"}]}, {"smiles": "COc1cccc(-c2nnc(NS(=O)(=O)[C@@H](C)[C@H](OC)c3ncc(C)cn3)n2-c2c(OC)ccnc2OC)n1", "note": "(single isomer, unassigned) [Example 771.0]", "values": [{"measurement": "EC50", "setting": "Activity hAPJ SPA EC50 IP (μM)", "result": 0.002, "unit": "µM"}]}, {"smiles": "COc1cccc(-c2nnc(NS(=O)(=O)C[C@H](O)c3ccc(F)cc3S(C)(=O)=O)n2-c2c(OC)cccc2OC)n1", "note": "(mixture of isomers) [Example 267.0, (R)-N-(4-(2,6-dimethoxyphenyl)-5-(6-methoxypyridin-2-yl)-4H-1,2,4-triazol-3-yl)-2-(4-fluoro-2-(methylsulfonyl)phenyl)-2-hydroxyethanesulfonamide and (S)-N-(4-(2,6-dimethoxyphenyl)-5-(6-methoxypyridin-2-yl)-4H-1,2,4-triazol-3-yl)-2-(4-fluoro-2-(methylsulfonyl)phenyl)-2-hydroxyethanesulfonamide]", "values": [{"measurement": "EC50", "setting": "Activity hAPJ SPA EC50 IP (μM)", "result": 0.00015, "unit": "µM"}]}, {"smiles": "COc1cnc([C@H](O)[C@@H](C)S(=O)(=O)Nc2nnc(-c3cccnc3)n2-c2c(OC)cccc2OC)cn1", "note": "(mixture of isomers) [Example 703.0, (1R,2S)-N-(4-(2,6-dimethoxyphenyl)-5-(3-pyridinyl)-4H-1,2,4-triazol-3-yl)-1-hydroxy-1-(5-methoxy-2-pyrazinyl)-2-propanesulfonamide and (1S,2R)-N-(4-(2,6-dimethoxyphenyl)-5-(3-pyridinyl)-4H-1,2,4-triazol-3-yl)-1-hydroxy-1-(5-methoxy-2-pyrazinyl)-2-propanesulfonamide]", "values": [{"measurement": "EC50", "setting": "Activity hAPJ SPA EC50 IP (μM)", "result": 0.002, "unit": "µM"}]}, {"smiles": "CCO[C@@H](c1cnc(C)cn1)[C@@H](C)S(=O)(=O)Nc1nnc(-c2cccc(OC)n2)n1-c1c(OC)cccc1OC", "note": "(single isomer, unassigned) [Example 588.0, (1S,2R)-N-(4-(2,6-dimethoxyphenyl)-5-(6-methoxy-2-pyridinyl)-4H-1,2,4-triazol-3-yl)-1-ethoxy-1-(5-methyl-2-pyrazinyl)-2-propanesulfonamide or (1R,2S)-N-(4-(2,6-dimethoxyphenyl)-5-(6-methoxy-2-pyridinyl)-4H-1,2,4-triazol-3-yl)-1-ethoxy-1-(5-methyl-2-pyrazinyl)-2-propanesulfonamide]", "values": [{"measurement": "EC50", "setting": "[1]", "result": 0.00052, "unit": "µM"}]}, {"smiles": "COc1cccc(OC)c1-n1c(NS(=O)(=O)[C@@H](C)[C@H](C)c2ncc(C#N)cn2)nnc1-c1cncc(C)c1", "note": "[Example 697.0, (2S,3R)-3-(5-cyano-2-pyrimidinyl)-N-(4-(2,6-dimethoxyphenyl)-5-(5-methyl-3-pyridinyl)-4H-1,2,4-triazol-3-yl)-2-butanesulfonamide]", "values": [{"measurement": "EC50", "setting": "Activity hAPJ SPA EC50 IP (μM)", "result": 0.0007, "unit": "µM"}]}, {"smiles": "COc1cccc(OC)c1-n1c(NS(=O)(=O)[C@@H](C)[C@H](OC)c2ccc(Cl)cn2)nnc1-c1cccnc1", "note": "(mixture of isomers) [Example 529.0, (1S,2R)-1-(5-chloro-2-pyridinyl)-N-(4-(2,6-dimethoxyphenyl)-5-(3-pyridinyl)-4H-1,2,4-triazol-3-yl)-1-methoxy-2-propanesulfonamide and (1R,2S)-1-(5-chloro-2-pyridinyl)-N-(4-(2,6-dimethoxyphenyl)-5-(3-pyridinyl)-4H-1,2,4-triazol-3-yl)-1-methoxy-2-propanesulfonamide]", "values": [{"measurement": "EC50", "setting": "Activity hAPJ SPA EC50 IP (μM)", "result": 0.00048, "unit": "µM"}]}, {"smiles": "COc1cccc(-c2nnc(NS(=O)(=O)[C@H](C)[C@H](O)c3cn(C)cn3)n2-c2c(OC)cccc2OC)n1", "note": "(mixture of isomers) [Example 259.0, (1R,2R)-N-(4-(2,6-dimethoxyphenyl)-5-(6-methoxypyridin-2-yl)-4H-1,2,4-triazol-3-yl)-1-hydroxy-1-(1-methyl-1H-imidazol-4-yl)propane-2-sulfonamide and (1S,2S)-N-(4-(2,6-dimethoxyphenyl)-5-(6-methoxypyridin-2-yl)-4H-1,2,4-triazol-3-yl)-1-hydroxy-1-(1-methyl-1H-imidazol-4-yl)propane-2-sulfonamide]", "values": [{"measurement": "EC50", "setting": "[1]", "result": 0.011, "unit": "µM"}]}, {"smiles": "COCCO[C@H](c1ncc(C)cn1)[C@H](C)S(=O)(=O)Nc1nnc(-c2cccc(OC)n2)n1-c1c(OC)cccc1OC", "note": "[Example 695.0, (1R,2S)-N-(4-(2,6-dimethoxyphenyl)-5-(6-methoxypyridin-2-yl)-4H-1,2,4-triazol-3-yl)-1-(2-methoxyethoxy)-1-(5-methylpyrimidin-2-yl)propane-2-sulfonamide]", "values": [{"measurement": "EC50", "setting": "Activity hAPJ SPA EC50 IP (μM)", "result": 0.00012, "unit": "µM"}]}, {"smiles": "CC#Cc1cnc([C@@H](OC)[C@H](C)S(=O)(=O)Nc2nnc(-c3cncc(C)c3)n2-c2c(OC)cccc2OC)nc1", "note": "[Example 535.0, (1R,2S)-N-(4-(2,6-dimethoxyphenyl)-5-(5-methylpyridin-3-yl)-4H-1,2,4-triazol-3-yl)-1-methoxy-1-(5-(prop-1-yn-1-yl)pyrimidin-2-yl)propane-2-sulfonamide]", "values": [{"measurement": "EC50", "setting": "Activity hAPJ SPA EC50 IP (μM)", "result": 0.0013, "unit": "µM"}]}]}
